From ChEMBL document CHEMBL1201862, “PubChem BioAssay data set” (2004) come the findings set out here.

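Cells were grown in 96-well plates and exposed to each compound for 48 hours at five concentrations; endpoints were interpolated linearly between bracketing concentrations, or set to the highest concentration if not reached. GI50: concentration for 50% inhibition of growth.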 Activity calls are given as the source filed them. No stated cut-off is given here; in the data, active = GI50 up to about 1.1 µM and inactive = higher.

Some test systems named below: HCC 2998; SNB-19; KM12; NCI-H522; NCI-H226; HOP-62; RPMI-8226; OVCAR-8; A549; HOP-92; SF-295; UACC-62; HCT-15; CCRF-CEM; SF-539; IGROV-1; K562; EKVX; HL-60; SN12C.
What all share (assay): NCI tumour cell line growth inhibition, 48 h

For `NCCCCCC(CCN)SCC1OC(n2cnc3c(N)ncnc32)C(O)C1O` (stereo not given), the GI50 with HCC 2998 was > 1150 µM (inactive); in the assay on SNB-19, 615 µM (inactive); in the assay on KM12, 416 µM (inactive); in the assay with NCI-H522, 822 µM (inactive); with NCI-H226, 589 µM (inactive); in the assay with HOP-62, > 809 µM (inactive). Besides, the GI50 in the assay on RPMI-8226 is 292 µM (inactive); with OVCAR-8, > 708 µM (inactive); with A549, > 1500 µM (inactive); with HOP-92 it was > 618 µM (inactive); in the assay with SF-295, 469 µM (inactive); in the assay with UACC-62, 537 µM (inactive). In addition, the GI50 in the assay with HCT-15 is more than 946 µM; in the assay on CCRF-CEM it was 891 µM (inactive); with SF-539, 483 µM (inactive); with IGROV-1, 1180 µM (inactive); with K562, 436 µM (inactive); in the assay with EKVX, > 555 µM (inactive). Further, the GI50 in the assay on HL-60 was 519 µM (inactive); in the assay on SN12C, > 574 µM (inactive).
As for `CCc1n[nH]c(=O)n1CC`, the GI50 in the assay on HCC 2998, in the assay with SNB-19, with KM12, in the assay with NCI-H522, with NCI-H226 and in the assay on HOP-62 was > 100 µM (inactive) each time. The GI50 in the assay with RPMI-8226, in the assay with OVCAR-8, in the assay with A549, in the assay on HOP-92, with SF-295 and in the assay with UACC-62 was > 100 µM (inactive) in each case. The GI50 in the assay with HCT-15 is more than 100 µM; in the assay with CCRF-CEM, > 100 µM (inactive); in the assay with SF-539, > 100 µM (inactive); in the assay with IGROV-1, > 100 µM (inactive); in the assay on K562, > 100 µM (inactive); in the assay with EKVX, > 100 µM (inactive). Also, the GI50 was 21.7 µM (inactive) with HL-60 and > 100 µM (inactive) with SN12C.
For the compound `O=C(CC1Sc2ccccc2NC1=O)Nc1ccccc1[N+](=O)[O-]` (stereo not given), the GI50 in the assay on HCC 2998 was > 100 µM (inactive); in the assay on SNB-19, > 100 µM (inactive); in the assay with KM12, > 100 µM (inactive); in the assay on NCI-H522, 17.1 µM (inactive); with NCI-H226 it was > 100 µM (inactive); in the assay on HOP-62 it was > 100 µM (inactive). Moreover, the GI50 in the assay on RPMI-8226, in the assay on OVCAR-8, in the assay on A549, with HOP-92, in the assay on SF-295 and in the assay on UACC-62 was > 100 µM (inactive) each time. In addition, the GI50 in the assay with HCT-15 is more than 100 µM; with CCRF-CEM, > 100 µM (inactive); with SF-539 it was > 100 µM (inactive); with IGROV-1, > 100 µM (inactive); in the assay on K562, > 100 µM (inactive); in the assay on EKVX, > 100 µM (inactive). Moreover, the GI50 in the assay on HL-60 and with SN12C was > 100 µM (inactive) each time.
For the compound `Cc1ccc(N2Cc3c(ccc4ccccc34)OP2(=S)N2CCCC2)cc1` (stereo not given), the GI50 with HCC 2998, with SNB-19, with KM12, with NCI-H522, in the assay on NCI-H226 and with HOP-62 was > 100 µM (inactive) each time. The GI50 in the assay on RPMI-8226 was > 22 µM (inactive); in the assay with OVCAR-8, > 100 µM (inactive); in the assay with A549, > 100 µM (inactive); with HOP-92 it was > 100 µM (inactive); with SF-295 it was > 67.8 µM (inactive); with UACC-62, > 100 µM (inactive). Also, the GI50 in the assay with HCT-15 is more than 100 µM; in the assay on CCRF-CEM, > 100 µM (inactive); in the assay with SF-539 it was > 100 µM (inactive); in the assay on IGROV-1 it was > 100 µM (inactive); in the assay on K562 it was > 89.9 µM (inactive); in the assay with EKVX, > 100 µM (inactive). Further, the GI50 with HL-60 and in the assay on SN12C was > 100 µM (inactive) in each case.
